Test results published in article PMC6942458 (ACS chemical biology, 2019).

How the values were obtained:
SIRT3 = target: T1, SIRT3 (Homo sapiens, UniProt Q9NTG7); test: SIRT3 deacetylase inhibition assay; type: biochemical
T1 sequence (Q9NTG7 1-399): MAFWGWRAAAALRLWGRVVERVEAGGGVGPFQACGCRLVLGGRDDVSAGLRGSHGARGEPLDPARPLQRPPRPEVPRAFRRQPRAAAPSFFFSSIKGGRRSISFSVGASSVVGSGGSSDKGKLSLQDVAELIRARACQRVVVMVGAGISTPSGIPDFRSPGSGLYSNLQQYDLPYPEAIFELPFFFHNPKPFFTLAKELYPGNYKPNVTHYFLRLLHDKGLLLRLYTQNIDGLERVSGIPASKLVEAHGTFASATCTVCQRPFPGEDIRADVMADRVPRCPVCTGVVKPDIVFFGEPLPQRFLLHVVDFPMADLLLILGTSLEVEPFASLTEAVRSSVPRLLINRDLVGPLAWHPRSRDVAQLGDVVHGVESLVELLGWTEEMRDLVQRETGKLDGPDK

MCF7 cells [1] = test: MCF7 cell permeability/availability assay; type: in vitro ADME; details: for level of inhibitor detected in cells: 6 hours
MCF7 cells [2] = test: Soft agar colony formation assay; type: cell-based; details: MCF7, 12 μM, 10 days
[3] = 50 mM DMSO stock diluted to 5 mg/ml in PBS
[4] = tested on: various cancer cell lines; details: breast, pancreatic, colon, lung and many more; cited from earlier work
breast cancers = details: xenograft model and genetic model of breast cancers in mice; cited from earlier work

- SIRT3 inhibition at 83 μM (SIRT3): did not inhibit
- level of inhibitor detected in cells (MCF7 cells [1]; MCF7, 25 μM): about 0.29 μg/million cells
- level of inhibitor detected in cells (MCF7 cells [1]; MCF7, 50 μM): ~0.30 μg/million cells
- compound detected in treated cells (MCF7 cells [1]; MCF7 cells treated 6 hours, LC-MS): approximately 0.30 μg/million cells
- solubility in PBS (precipitation) [3]: white precipitation formed instantly
SMILES: CCCCCCCCCCCCCC(=S)NCCCCC(NC(=O)OCc1ccccc1)C(=O)Nc1ccccc1 (centres unmarked) [TM]
- colony formation in soft agar (MCF7 cells [2]): formed many colonies
- cytotoxicity in cancer cell lines [4]: cytotoxic
- tumor growth (breast cancers): inhibited tumor growth
